One molecule from patent US20090118361A1, “SUPPRESSOR OF EXPRESSION OF MCP-1, AND AMELIORATING AGENT FOR INFLAMMATORY DISEASE, PHARMACEUTICAL, SUPPLEMENT, FOOD, BEVERAGE OR FOOD ADDITIVE USING THE SUPPRESSOR” (ARKRAY, INC., priority 2006, published 2009) can be followed below.

For test [1], the system named is MCP-1. Briefly: Suppression of MCP-1 mRNA expression in differentiated 3T3-L1 adipocytes (Light Cycler quantitative determination, ratio to 36B4). Format: cell-based, mouse. The note with it: 3T3-L1, eight days after start of differentiation induction, MCP-1/36B4 ratio relative to non-treated control = 100%, mean ± standard error. On the procedure: (§1) First, two types of culture media indicated below, i.e. a differentiation induction culture medium and a differentiation enhancing culture medium, were prepared.
(§2) (Composition: 0.25 μM DEX, 0.5 mM MIX, 10 μg/mL insulin/10% FBS-containing DMEM)
(§3) First, 55 mL of FBS (fetal bovine serum (manufactured by GIBCO)) was added to 500 mL of DMEM (manufactured by SIGMA), and thereby 10% FBS-containing DMEM was prepared. Thereafter, 138.75 μL of 1 mM DEX (dexamethasone)-containing DMSO (manufactured by Nacalai Tesque, Inc.) and 555 μL of 10 mg/mL insulin-containing PBS (manufactured by SIGMA) were added thereto. The insulin-containing PBS was prepared as follows. That is, 1N HCl was added to PBS beforehand, so that PBS acidified to a degree that allowed insulin to dissolve therein, and thereafter insulin was dissolved therein. MIX (3-Isobutyl-1-methylxanthine) (manufactured by Nacalai Tesque, Inc.) was added to a required amount of the culture medium immediately before use so as to be 0.5 mM. Thus a differentiation induction culture medium was prepared. Since MIX was very difficult to dissolve, it first was dissolved in a small amount of 99.5% ethanol. which was then added to 10% FBS-containing DMEM. In this case, the final concentration of 99.5% ethanol in the differentiation induction culture medium was adjusted so as not to exceed 1%.
(§4) (Composition: 5 ug/mL insulin/10% FBS-containing DMEM/auraptene)
First, 277.5 μL of the aforementioned 10 mg/mL insulin-containing PBS was added to 555 ml, of 10% FBS-containing DMEM. Furthermore, auraptene (AUR) with various concentrations was added to this mixture and thereby differentiation enhancing culture media were prepared. […]
Subsequently, frozen cultured preadipocyte 3T3-L1 was thawed and was plated on the culture medium placed in a 100-mm dish. […] Subsequently, using a Light/Cycler®, the levels of mRNA expression of MCP-1 and 36B4, […], were measured. […]

Test [2] concerns MCP-1. The test is described as follows: MCP-1 protein secretion into conditioned medium of differentiated 3T3-L1 adipocytes (ELISA). Format: cell-based, mouse. The conditions noted are these: 3T3-L1 conditioned medium, eight days after start of differentiation induction, relative to non-treated control = 100, mean ± standard error. The method, then:
as §1, §2, §3, §4
First, 277.5 μL of the aforementioned 10 mg/mL insulin-containing PBS was added to 555 ml, of 10% FBS-containing DMEM. Furthermore, auraptene (AUR) with various concentrations was added to this mixture and thereby differentiation enhancing culture media were prepared. In this case, a cultured cell obtained by using auraptene-free differentiation enhancing culture medium containing DMSO added instead of auraptene was employed as a non-treated control (control).
Subsequently, frozen cultured preadipocyte 3T3-L1 was thawed and was plated on the culture medium placed in a 100-mm dish. This was cultured until 3T3-L1 reached about 80% confluent. One dish of 3T3-L1 that had reached about 80% confluent was subcultured on a 6-well plate. Subsequently, after 3T3-L1 subcultured on the 6-well plate further was cultured until it reached 100% confluent, the culture medium was replaced by a differentiation induction culture medium and thereby differentiation was induced. Subsequently, 48 hours after replacement by a differentiation induction culture medium, the culture medium was replaced by a differentiation enhancing culture medium. Thereafter, replacement of the differentiation enhancing culture medium was carried out every three days. Using Sepasol RNA I Super (trade name, manufactured by Nacalai Tesque, Inc.), mRNA was extracted from the cultured cells eight days after the start of differentiation induction. Subsequently, using a Light/Cycler®, the levels of mRNA expression of MCP-1 and 36B4, […], were measured. The measurement of the levels of mRNA expression is described below in detail.
Furthermore, the culture medium obtained eight days after the start of differentiation induction was collected in an amount of 1 mL from each well. Using an ELISA kit (manufactured by BD Bioscience, trade name: BD OptEIA Set Mouse MCP-1), the amount of MCP-1 (protein abundance) in the conditioned medium was measured according to the manual of the kit.
The relative ratios calculated, with the measured value of the non-treated control (control) with respect to the measured value of the secretion amount of MCP-1 by ELISA being taken as 100, are indicated in Table 2 below and in the graph shown in FIG. 2. The auraptene concentrations indicated in Table 2 below and FIG. 2 are final concentrations in the differentiation enhancing culture media. In FIG. 2, AUR denotes auraptene, and Ctrl indicates the non-treated control (control). […]
A general note: ELISA stands for enzyme-linked immunosorbent assay.

Regarding `CC(C)=CCC/C(C)=C/COc1ccc2ccc(=O)oc2c1` [Example 1, auraptene], the “mRNA concentration of MCP-1” value with MCP-1 [1] (auraptene 5 μM in differentiation enhancing medium) is 99.8 ± 8.0%; in the test with MCP-1 [1] (auraptene 20 μM in differentiation enhancing medium) it was 62.3 ± 5.8%; in the test with MCP-1 [1] (auraptene 50 μM in differentiation enhancing medium), 28.3 ± 2.9%. The “Protein secretion amount of MCP-1” value was found to be 94.6 ± 4.9% in the test on MCP-1 [2] (auraptene 1 μM); 98.6 ± 2.5% with MCP-1 [2] (auraptene 5 μM); 92.1 ± 4.6% in the test with MCP-1 [2] (auraptene 10 μM); 72.3 ± 2.2% with MCP-1 [2] (auraptene 20 μM); 63.9 ± 2.5% in the test with MCP-1 [2] (auraptene 30 μM); 48.5 ± 2.1% with MCP-1 [2] (auraptene 50 μM).
